# From US20220220106A1, “QUINOLINE COMPOUNDS AND PHARMACEUTICAL COMPOSITIONS AND USES THEREOF” (Academy of Military Medical Sciences, priority 2019, published 2022)
# Where two headings read alike, the source gives them in different places.
# Tests used:
# RD cells = test: Detection of cytotoxicity in RD cells (CellTiter-Glo); format: cell-based; conditions: for TD50: 4 days, CellTiter-Glo, median toxic dose
# Procedure, shortened: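 RD cells (1*10^5/mL) cultured 4 days at 37 °C with 10 compound concentrations from 3-fold dilution of a 400 μM pretreatment solution, final being 0.5 times that. Viability by CellTiter-Glo luminescence versus cell control; TD50 from S-curve fit; SI=TD50/IC50.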
# [1] = In vivo drug metabolism (pharmacokinetics) in mice, iv and po; parameters: species or system C57 male mice; conditions: for apparent volume of distribution (Vss), in words / clearance rate (CL), in words / area under curve (AUC) through injection administration route, in words: iv; for Tmax / AUC / clearance / half-life / Vd / C0 / Cmax: male, plasma; for Tmax: C57, mouse, 10 mg/kg; for AUC / clearance / half-life / Vd / C0 / Cmax: mouse; for clearance: read-out: CL iv; for Vd: read-out: Vss iv; for F po: oral bioavailability, po 10 mg/kg vs iv 1 mg/kg
# Protocol: Experimental animals: C57 male mice (purchased from Beijing Vital River Laboratory Animal Technology Co., Ltd.), bred for 6-8 weeks and weighing 20-30 g, 3 mice in each group of iv/po groups, a total of 6 groups.
# Preparation of Sample Solutions:
# (1) Preparation of sample solution (1 mg/kg, 5 mL/kg) for injection (iv): 1 mg of the sample to be tested was dissolved in 0.5 mL DMSO, mixed by a vortex mixer, and treated ultrasonically to obtain a stock solution (2 mg/mL); 0.10 mL of the stock solution (2 mg/mL) was added to a vial, then 0.4 mL of PEG400 and 0.5 mL of water were added, and mixed by a vortex shaker, treated ultrasonically to obtain a sample solution with a concentration of 0.2 mg/mL.
# (2) Preparation of sample solution (10 mg/kg, 10 mL/kg) for oral administration (po): 1 mg of the sample to be tested was dissolved in 1 mL of “0.5% CMC/0.1% Tween-80 aqueous solution”, mixed by a vortex mixer, and treated ultrasonically to obtain a suspension of the sample to be tested with a concentration of 1 mg/mL.
# Liquid Chromatography Method:
# (1) Chromatographic column: Waters XSELECT CSH C18, 2.5 μm 2.1×50 mm chromatographic column.
# (2) Mobile phase: Phase A: 5% acetonitrile in aqueous solution (0.1% formic acid); Phase B: 95% acetonitrile in aqueous solution (0.1% formic acid).
# (3) Flow rate: 0.6 mL/min.
# (4) Sampling volume: 20 μL.
# For each compound, po group and iv group were set for administration. All experimental animals were fasted overnight before administration, and all administration was performed at room temperature.
# Sampling time: for iv group, sampling was performed at 0.083, 0.25, 0.5, 1, 2, 4, 8 and 24 hours after injection administration (iv); for po group, sample was performed at 0.25, 0.5, 1, 2, 4, 8 and 24 hours after oral administration (po).
# (1) At each time point, about 0.03 mL of blood was collected. The blood of each sample was transferred to a plastic microcentrifuge tube containing heparin sodium anticoagulant, mixed well with the anticoagulant, and then cooled on ice and centrifuged.
# (2) The blood sample was centrifuged at 4000 rpm for 5 minutes at 4° C. to obtain plasma.
# (3) The samples was stored in a refrigerator at −75±15° C. for later test.
# Analysis and Identification:
# The mixed solution of acetonitrile and water (1:1) was used to dilute the stock solution to prepare a series of working solutions.
# 3 μL of working solution (5, 10, 20, 50, 100, 500, 1000, 5000, 10000 ng/mL) was added to 30 μL of C57 mouse blank plasma to obtain a standard solution with a concentration of 0.5-1000 ng/mL (0.5, 1, 2, 5, 10, 50, 100, 500, 1000 ng/mL), in total of 33 μL. Four quality control samples of 1 ng/mL, 2 ng/mL, 50 ng/mL and 800 ng/mL were used to calibrate the standard curve.
# (2) The quality control samples were prepared on the day of analysis, and the method was the same as the standard solution.
# (3) 200 μL of acetonitrile containing internal standard solution was added to 33 μL of standard samples, 33 μL of quality control samples and 33 μL of unknown sample (30 μL of plasma and 3 μL of blank solution) to precipitate protein, respectively. The samples were mixed by a vortex mixer for 30 seconds and mixed well. The precipitated samples were centrifuged for 15 minutes at 4° C. and 4000 rpm.
# (4) The supernatant was pipetted quantitatively and diluted by 3 times with water, then the diluted supernatant was loaded and quantitatively analyzed by liquid chromatography-mass spectrometry technology.
# (5) Detection data were obtained, and pharmacokinetic parameters such as T1/2, Cmax, AUC, AUC, CL, Vss, F were calculated.
# [2] = po, po 10 mg/kg, read-out: Tmax po
# [3] = po, po, read-out: peak time Tmax
# [4] = iv 1 mg/kg, C57 mice, read-out: AUC iv
# [5] = iv 1 mg/kg, C57 mice, read-out: T1/2 iv (converted)
# [6] = po 10 mg/kg, C57 mice, read-out: AUC po
# [7] = po 10 mg/kg, C57 mice, read-out: T1/2 po (converted)
Structure (SMILES),melting point [°C],TD50 (RD cells) [µM],"apparent volume of distribution (Vss), in words ([1]; C57 mice)","Tmax [1, 2] [min]","Tmax [1, 3] [min]","AUC [1, 4] [ng·h/mL]","clearance ([1]; iv 1 mg/kg, C57 mice) [mL/min/kg]","half-life [1, 5] [min]","Vd ([1]; iv 1 mg/kg, C57 mice) [L/kg]","AUC [1, 6] [ng·h/mL]","half-life [1, 7] [min]","C0 ([1]; iv 1 mg/kg, C57 mice) [ng/mL]","Cmax ([1]; po 10 mg/kg, C57 mice) [ng/mL]",other results
"O=c1ccc2cnc3ccc(-c4ccc5ncccc5c4)cc3c2n1-c1cccc(C(F)(F)F)c1 [HTL-6-47, 9-(6-quinolyl)-2-oxo-1-[3-(trifluoromethyl)phenyl]-1,2-dihydrobenzo[h][1,6]naphthyridine]",196 to 197,0.03 ± 0.02,,,,,,,,,,,,
"COc1ncc(-c2ccc3ncc4ccc(=O)n(-c5cccc(C(F)(F)F)c5)c4c3c2)cn1 [HTL-7-06, 9-[5-(2-methoxy)pyrimidyl]-2-oxo-1-[3-(trifluoromethyl)phenyl]-1,2-dihydrobenzo[h][1,6]naphthyridine]",262 to 264,0.17 ± 0.06,,,,,,,,,,,,
"CN1CCN(c2ccc(-c3ccc4ncc5ccc(=O)n(-c6cccc(C(F)(F)F)c6)c5c4c3)cn2)CC1 [HTL-7-17, 9-{3-[6-(4-methylpiperazin-1-yl)pyridyl]}-2-oxo-1-[3-(trifluoromethyl)phenyl]-1,2-dihydrobenzo[h][1,6]naphthyridine]",,0.18 ± 0.15,slightly higher,20,19.8,168,99,43.1,3.59,357,94.8,364,144,"clearance rate (CL), in words ([1]; C57 mice): relatively higher clearance rate"
"COc1ccc(-c2ccc3ncc4ccc(=O)n(-c5cccc(C(F)(F)F)c5)c4c3c2)cn1 [HTL-7-03, 9-[3-(6-methoxy)pyridyl]-2-oxo-1-[3-(trifluoromethyl)phenyl]-1,2-dihydrobenzo[h][1,6]naphthyridine]",,0.13 ± 0.03,slightly higher,40,> 30,668,24.1,110,3.24,1640,74.4,596,565,"half-life T1/2, in words ([1]; C57 mice): relatively longer half-life; area under curve (AUC) through injection administration route, in words ([1]; C57 mice): relatively high"
"O=c1ccc2cnc3ccc(-c4cc[nH]n4)cc3c2n1-c1cccc(C(F)(F)F)c1 [HTL-6-50, 9-[(1H)-3-pyrazolyl]-2-oxo-1-[3-(trifluoromethyl)phenyl]-1,2-dihydrobenzo[h][1,6]naphthyridine]",283 to 286,0.17 ± 0.05,,,,,,,,,,,,
"CC(=O)/C=C/c1cnc2ccc(-c3ccc(C)nc3)cc2c1Nc1cccc(C(F)(F)F)c1 [HTL-2-38, (E)-6-[3-(6-methyl)pyridyl]-4-[3-(trifluoromethyl)phenyl]aminoquinoline-3-butenone]",172 to 174,8.71 ± 1.53,,,,,,,,,,,,
"O=c1ccc2cnc3ccc(-c4cccnc4F)cc3c2n1-c1cccc(C(F)(F)F)c1 [HTL-6-48, 9-[3-(2-fluoro)pyridyl]-2-oxo-1-[3-(trifluoromethyl)phenyl]-1,2-dihydrobenzo [h][1,6]naphthyridine]",,1.23 ± 1.20,lower,15,15,651,25.6,50.4,1.59,1330,59.4,651,1290,"highest blood concentration C0/Cmax, in words ([1]; C57 mice): relatively high; area under curve (AUC) through injection administration route, in words ([1]; C57 mice): relatively high; toxicity, in words (RD cells): relatively low toxicity"
"NC(=O)c1ccc(-c2ccc3ncc4oc(=O)n(-c5cccc(C(F)(F)F)c5)c4c3c2)cc1 [HTL-5-21, 8-(4-carbamoyl)phenyl-1-[3-(trifluoromethyl)phenyl]oxazolo[5,4-c]quinolin-2(1H)-one]",294 to 296,6.95 ± 1.23,,,,,,,,,,,,
"NC(=O)/C=C/c1ccc2ncc3oc(=O)n(-c4cccc(C(F)(F)F)c4)c3c2c1 [HTL-6-30, (E)-8-(2-carbamoyl-vinyl)-1-[3-(trifluoromethyl)phenyl]oxazolo[5,4-c]quinolin-2(1H)-one]",291 to 292,7 ± 0.09,,,,,,,,,,,,
"COc1ccc(CC(=O)Nc2ccc(-c3ccc4ncc5ccc(=O)n(-c6cccc(C(F)(F)F)c6)c5c4c3)cn2)cc1 [HTL-7-11, 9-{3-[6-(4-methoxy)phenylacetylamino]pyridyl}-2-oxo-1-[3-(trifluoromethyl)phenyl]-1,2-dihydrobenzo[h][1,6]naphthyridine]",241 to 243,0.19 ± 0.10,,,,,,,,,,,,
"CCC(=O)Nc1ccc(-c2ccc3ncc4ccc(=O)n(-c5cccc(C(F)(F)F)c5)c4c3c2)cn1 [HTL-6-45, 9-[3-(6-propionylamino)pyridyl]-2-oxo-1-[3-(trifluoromethyl)phenyl]-1,2-dihydrobenzo[h][1,6]naphthyridine]",,0.04 ± 0.02,slightly higher,15,15,95,176,19.4,3.25,35.4,50.4,398,42.9,"clearance rate (CL), in words ([1]; C57 mice): relatively higher clearance rate; F po ([1]; C57 mice): 3.89%"
"COc1cc(-c2ccc3ncc4ccc(=O)n(-c5cccc(C(F)(F)F)c5)c4c3c2)cnc1N [HTL-7-19, 9-[3-(6-amino-5-methoxy)pyridyl]-2-oxo-1-[3-(trifluoromethyl)phenyl]-1,2-dihydrobenzo[h][1,6]naphthyridine]",233 to 234,0.06 ± 0.02,,,,,,,,,,,,
"O=c1ccc2cnc3ccc(C4=CCC5(CC4)OCCO5)cc3c2n1-c1cccc(C(F)(F)F)c1 [HTL-7-13, 9-(1,4-dioxa-spiro[4.5]dec-7-en-8-yl)-2-oxo-1-[3-(trifluoromethyl)phenyl]-1,2-dihydrobenzo[h][1,6]naphthyridine]",210 to 211,200 ± 0,,,,,,,,,,,,
"O=c1ccc2cnc3ccc(-c4ccc(F)nc4)cc3c2n1-c1cccc(C(F)(F)F)c1 [HTL-7-01, 9-[3-(6-fluoro)pyridyl]-2-oxo-1-[3-(trifluoromethyl)phenyl]-1,2-dihydrobenzo[h][1,6]naphthyridine]",,0.23 ± 0.33,lower,30,> 30,592,27.8,63,2.29,699,121,574,298,"area under curve (AUC) through injection administration route, in words ([1]; C57 mice): relatively high; F po ([1]; C57 mice): 12.2%; AUC through oral administration, in words ([1]; po, C57 mice): lower"
